IC50 data for eleven compounds are collected here from patent publication US20250215030A1, “STAT MODULATORS AND USES THEREOF” (Recludix Pharma, Inc., priority 2022, published 2025).

The structures appear in SMILES notation.

The target of one test is T1, pSTAT3 (pY705-STAT3) (Homo sapiens, UniProt P40763).
T1 construct: host or cells: cryopreserved PBMC
As to the kind of experiment: MSD-pSTAT-PBMC Assay (pSTAT3, IL-6 stimulated). The conditions noted are these: PBMC, compound 3 hrs, then 10 ng/mL IL-6 for 10 min; MSD pY705-STAT3; read-out: pSTAT3. It counts as cell-based. The method, boiled down: (§1)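 Human PBMCs (50,000 cells/well for STAT3, 25,000 for STAT6) treated with compound 3 h, then stimulated 10 min with 10 ng/mL IL-6 or 1 ng/mL IL-4. Lysate pSTAT3 (pY705) or pSTAT6 (pY641) measured by MSD sandwich electrochemiluminescence. Signal minus unstimulated, normalized to DMSO; IC50 by variable-slope nonlinear regression.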

For the next test, the target named is T2, pSTAT6 (pY641-STAT6) (Homo sapiens, UniProt P42226).
T2 construct: host or cells: cryopreserved PBMC
T2 sequence (P42226 1-847): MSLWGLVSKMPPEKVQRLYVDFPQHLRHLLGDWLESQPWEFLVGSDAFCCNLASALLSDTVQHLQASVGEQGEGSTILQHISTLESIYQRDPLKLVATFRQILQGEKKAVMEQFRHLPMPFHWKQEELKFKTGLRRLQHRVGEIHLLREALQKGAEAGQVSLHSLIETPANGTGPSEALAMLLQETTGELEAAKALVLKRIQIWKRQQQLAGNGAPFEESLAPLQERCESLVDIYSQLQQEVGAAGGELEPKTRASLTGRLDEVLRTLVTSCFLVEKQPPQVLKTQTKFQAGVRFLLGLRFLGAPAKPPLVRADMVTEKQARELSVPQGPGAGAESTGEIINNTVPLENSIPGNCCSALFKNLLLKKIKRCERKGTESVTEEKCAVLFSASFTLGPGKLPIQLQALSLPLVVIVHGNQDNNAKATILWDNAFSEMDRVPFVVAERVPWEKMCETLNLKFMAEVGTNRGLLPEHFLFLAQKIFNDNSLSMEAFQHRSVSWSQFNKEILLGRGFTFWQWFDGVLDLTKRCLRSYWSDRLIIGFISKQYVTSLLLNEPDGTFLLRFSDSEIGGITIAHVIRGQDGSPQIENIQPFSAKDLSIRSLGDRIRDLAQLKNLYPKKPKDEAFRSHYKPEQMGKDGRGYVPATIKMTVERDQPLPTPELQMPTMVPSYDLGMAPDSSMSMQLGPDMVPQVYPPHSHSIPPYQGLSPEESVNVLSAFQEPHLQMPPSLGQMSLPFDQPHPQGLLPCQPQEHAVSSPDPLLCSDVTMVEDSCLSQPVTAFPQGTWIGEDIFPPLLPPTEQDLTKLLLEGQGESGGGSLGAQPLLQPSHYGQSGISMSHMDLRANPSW
As to the kind of experiment: MSD-pSTAT-PBMC Assay (pSTAT6, IL-4 stimulated). It counts as cell-based. The conditions noted are these: compound 3 hrs, then 1 ng/mL IL-4 for 10 min. The method, boiled down:
as §1

T1 sequence (P40763 whole entry): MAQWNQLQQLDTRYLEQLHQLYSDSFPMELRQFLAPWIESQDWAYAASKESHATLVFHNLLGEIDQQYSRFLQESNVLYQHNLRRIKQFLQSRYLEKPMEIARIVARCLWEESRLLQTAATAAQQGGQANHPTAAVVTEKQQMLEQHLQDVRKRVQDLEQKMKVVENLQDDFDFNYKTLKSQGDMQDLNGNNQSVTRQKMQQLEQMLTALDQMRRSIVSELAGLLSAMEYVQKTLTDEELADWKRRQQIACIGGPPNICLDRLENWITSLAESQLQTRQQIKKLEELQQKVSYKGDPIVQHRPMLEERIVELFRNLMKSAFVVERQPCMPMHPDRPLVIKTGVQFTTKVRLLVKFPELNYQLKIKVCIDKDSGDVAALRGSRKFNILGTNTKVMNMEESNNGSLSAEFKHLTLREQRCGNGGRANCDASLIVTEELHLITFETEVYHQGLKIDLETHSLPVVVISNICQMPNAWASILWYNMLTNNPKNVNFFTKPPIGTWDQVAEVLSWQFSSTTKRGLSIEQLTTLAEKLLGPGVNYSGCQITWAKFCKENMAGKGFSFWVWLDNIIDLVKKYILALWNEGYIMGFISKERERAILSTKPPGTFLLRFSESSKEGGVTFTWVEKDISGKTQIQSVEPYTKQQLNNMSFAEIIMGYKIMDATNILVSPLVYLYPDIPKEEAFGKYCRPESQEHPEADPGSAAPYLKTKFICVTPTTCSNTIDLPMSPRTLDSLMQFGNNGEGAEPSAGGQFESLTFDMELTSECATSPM

Take `CC(C)(CO)C(=O)SCCOP(=O)(OCCSC(=O)C(C)(C)CO)C(F)(F)c1ccc2sc(C(=O)N[C@H]3C[C@@H]4C[C@@H]4C[C@H]4CC[C@@H](C(=O)N5CC(n6ccnc6)C5)N4C3=O)cc2c1` [Compound 137, S,S′-(((((2-(((3S,6S,7aS, 8aR,9aR)-3-(3-(1H-imidazol-1-yl)azetidine-1-carbonyl)-5-oxodecahydro-1H-cyclopropa[d]pyrrolo[1,2-a]azocin-6-yl)carbamoyl)benzo[b]thiophen-5-yl)difluoro-methyl)phosphoryl)bis (oxy))bis(ethane-2,1-diyl))bis(3-hydroxy-2,2-dimethylpro-panethioate)]: the IC50 is 1000 to 3000 nM at pSTAT3 (pY705-STAT3) and over 3000 nM on pSTAT6 (pY641-STAT6).

For `CC(=O)N1C[C@H](NC(=O)[C@@H]2CC[C@@H]3C[C@H]4C[C@H]4C[C@H](NC(=O)c4cc5cc(C(F)(F)P(=O)(OCOC(=O)C(C)(C)C)OCOC(=O)C(C)(C)C)ccc5s4)C(=O)N32)[C@@H](O)C1` [Compound 208, ((((2-(((3S,6S,7aS, 8aR,9aR)-3-(((3S,4S)-1-acetyl-4-hydroxy-pyrrolidin-3-yl)carbamoyl) 5-oxodecahydro-1H-cyclopropa[d]pyrrolo[1,2-a]azocin-6-yl)carbamoyl)benzo[b]thiophen-5-yl)difluoromethyl)phosphoryl)bis(oxy)) bis(methylene) bis(2,2-dimethyl-propanoate)], the IC50 is under 100 nM on pSTAT3 (pY705-STAT3) and 1000 to 3000 nM against pSTAT6 (pY641-STAT6).

For the compound `CC(C)(C)C(=O)OCOP(=O)(OCOC(=O)C(C)(C)C)C(F)(F)c1ccc2sc(C(=O)N[C@H]3C[C@@H]4C[C@@H]4C[C@H]4CC[C@@H](C(=O)N5CC(C6CCOCC6)C5)N4C3=O)cc2c1` [Compound 205, (((difluoro(2-(((3S,6S,7aS, 8aR,9aR)-5-oxo-3-(3-(tetrahydro-2H-pyran-4-yl)azetidine-1-carbonyl)decahydro-1H-cyclopropa[d]pyrrolo[1,2-a]azocin-6-yl)carbamoyl)benzo[b]thiophen-5-yl)methyl)phosphoryl)bis(oxy)) bis(methylene) bis(2,2-dimethyl-propanoate)], the IC50 at pSTAT3 (pY705-STAT3) is under 100 nM; at pSTAT6 (pY641-STAT6), 100 to 1000 nM.

Turning to `CC(C)OC(=O)OCOP(=O)(Cc1ccc2sc(C(=O)N[C@H]3C[C@@H]4C[C@@H]4C[C@H]4CC[C@@H](C(=O)N5CC(C(=O)N6CCOCC6)C5)N4C3=O)cc2c1)OCOC(=O)OC(C)C` [Compound 148], the IC50 on pSTAT3 (pY705-STAT3) is 100 to 1000 nM; against pSTAT6 (pY641-STAT6) it was over 3000 nM.

For `CCOC(=O)CCCOP(=O)(OCCCC(=O)OCC)C(F)(F)c1ccc2sc(C(=O)N[C@H]3C[C@@H]4C[C@@H]4C[C@H]4CC[C@@H](C(=O)N5CC(C(=O)N6CCOCC6)C5)N4C3=O)cc2c1` [Compound 177, diethyl 4,4′-(((difluoro(2-(((3S,6S,7aS, 8aR,9aR)-3-(3-(morpholine-4-carbonyl)azetidine-1-carbonyl)-5-oxodecahydro-1H-cyclopropa[d]pyrrolo[1,2-a]azocin-6-yl)carbamoyl)benzo[b]thiophen-5-yl)methyl)phosphoryl)bis(oxy)) dibutyrate], the IC50 at pSTAT3 (pY705-STAT3) and on pSTAT6 (pY641-STAT6) was over 3000 nM in each case.

In the case of `CC(C)(C)OC(=O)OCOP(=O)(OCOC(=O)OC(C)(C)C)C(F)(F)c1ccc2sc(C(=O)N[C@H]3C[C@@H]4C[C@@H]4C[C@H]4CC[C@@H](C(=O)N5CC(C(=O)N6CCOCC6)C5)N4C3=O)cc2c1` [Compound 170, di-tert-butyl ((((difluoro(2-(((3S,6S,7aS, 8aR,9aR)-3-(3-(morpholine-4-carbonyl)azetidine-1-carbonyl)-5-oxodecahydro-1H-cyclopropa[d]pyrrolo[1,2-a]azocin-6-yl)carbamoyl)benzo[b]thiophen-5-yl)methyl)phosphoryl)bis(oxy))bis(methylene)) bis(carbonate)], the figures for the IC50 on pSTAT3 (pY705-STAT3) and at pSTAT6 (pY641-STAT6) were 1000 to 3000 nM and over 3000 nM, respectively.

As for `O=C(OCOP(=O)(OCOC(=O)OC1CCOCC1)C(F)(F)c1ccc2sc(C(=O)N[C@H]3C[C@H]4C[C@H]4C[C@H]4CC[C@@H](C(=O)N5CC(c6cccnc6)C5)N4C3=O)cc2c1)OC1CCOCC1` [Compound 166, (((difluoro(2-(((3S,6S,7aR, 8aS,9aR)-5-oxo-3-(3-(pyridin-3-yl)azetidine-1-carbonyl)decahydro-1H-cyclopropa[d]pyrrolo[1,2-a]azocin-6-yl)carbamoyl)benzo[b]thiophen-5-yl)methyl)phosphoryl)bis(oxy)) bis(methylene) bis(tetrahydro-2H-pyran-4-yl) bis(carbonate)], the IC50 was under 100 nM at pSTAT3 (pY705-STAT3) and over 3000 nM at pSTAT6 (pY641-STAT6).

For the compound `CC(C)(C)C(=O)SCCOP(=O)(Oc1ccccc1)C(F)(F)c1ccc2sc(C(=O)N[C@H]3C[C@H]4C[C@H]4C[C@H]4CC[C@@H](C(=O)N5CC(n6ccnc6)C5)N4C3=O)cc2c1` (stereo partly drawn) [Compound 195, S-(2-((((2-(((3S,6S,7aR, 8aS,9aR)-3-(3-(1H-imidazol-1-yl)azetidine-1-carbonyl)-5-oxodecahydro-1H-cyclopropa[d]pyrrolo[1,2-a]azocin-6-yl)carbamoyl)benzo[b]thiophen-5-yl)difluoromethyl) (phenoxy)phosphoryl)oxy)ethyl) 2,2-dimethyl-propanethioate], the IC50 was 100 to 1000 nM at pSTAT3 (pY705-STAT3) and over 3000 nM on pSTAT6 (pY641-STAT6).

Consider `CC(C)OC(=O)[C@H](C)NP(=O)(Oc1ccccc1)C(F)(F)c1ccc2sc(C(=O)N[C@H]3C[C@@H]4C[C@@H]4C[C@H]4CC[C@@H](C(=O)N5CC(C(=O)N6CCOCC6)C5)N4C3=O)cc2c1` (stereo partly drawn) [Compound 186, isopropyl ((difluoro(2-(((3S,6S,7aS, 8aR,9aR)-3-(3-(morpholine-4-carbonyl)azetidine-1-carbonyl)-5-oxodecahydro-1H-cyclopropa[d]pyrrolo[1,2-a]azocin-6-yl)carbamoyl)benzo[b]thiophen-5-yl)methyl) (phenoxy)phosphoryl)-L-alaninate], for which the IC50 on pSTAT3 (pY705-STAT3) and against pSTAT6 (pY641-STAT6) was over 3000 nM in each case.

For the compound `CC(C)OC(=O)OCOP(=O)(OCOC(=O)OC(C)C)C(F)(F)c1ccc2sc(C(=O)N[C@H]3C[C@H]4C[C@H]4C[C@H]4CC[C@@H](C(=O)N5CC(c6cccnc6)C5)N4C3=O)cc2c1` [Compound 189, (((difluoro(2-(((3S,6S,7aR, 8aS,9aR)-5-oxo-3-(3-(pyridin-3-yl)azetidine-1-carbonyl)decahydro-1H-cyclopropa[d]pyrrolo[1,2-a]azocin-6-yl)carbamoyl)benzo[b]thiophen-5-yl)methyl)phosphoryl)bis(oxy)) bis(methylene) diisopropyl bis(carbonate)], the IC50 on pSTAT3 (pY705-STAT3) was under 100 nM; on pSTAT6 (pY641-STAT6), 1000 to 3000 nM.

In the case of `C[C@@H](NP(=O)(Cc1ccc2sc(C(=O)N[C@H]3C[C@@H]4C[C@@H]4C[C@H]4CC[C@@H](C(=O)N5CC(C(=O)N6CCOCC6)C5)N4C3=O)cc2c1)Oc1ccccc1)C(=O)OCc1ccccc1` (stereo partly drawn) [Compound 143, benzyl (((2-(((3S,6S,7aS, 8aR,9aR)-3-(3-(morpholine-4-carbonyl)azetidine-1-carbonyl)-5-oxodecahydro-1H-cyclopropa [d]pyrrolo[1,2-a]azocin-6-yl)carbamoyl)benzo[b]thiophen-5-yl)methyl) (phenoxy)phosphoryl)-D-alaninate], the IC50 on pSTAT3 (pY705-STAT3) is 100 to 1000 nM; against pSTAT6 (pY641-STAT6), over 3000 nM.
